Results taken from ChEMBL document CHEMBL1201862, “PubChem BioAssay data set” (2004).
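Following 48 hours of exposure in 96-well plates, responses at five concentrations were used to interpolate endpoints linearly. The concentration for 50% growth inhibition is given as GI50.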 Activity calls are given as the source filed them. Cut-off read from the data, not from the text of the source: active = GI50 up to about 1.1 µM and inactive = higher.

What was measured:
Assay in all cases: growth of human tumour cells (NCI), 48 h
[1] = system: T47D
[2] = system: U-251
[3] = system: UACC-257
[4] = system: OVCAR-4
[5] = system: NCI-H460
[6] = system: TK-10
[7] = system: RXF 393
[8] = system: Hs-578T
[9] = system: KM12
[10] = system: HCT-15
[11] = system: NCI-H522
[12] = system: HOP-92
[13] = system: SK-MEL-5
[14] = system: UO-31
[15] = system: 786-0
[16] = system: SNB-75
[17] = system: NCI-H23
[18] = system: SF-295
[19] = system: M14

| SMILES | GI50 [1] | GI50 [2] | GI50 [3] | GI50 [4] | GI50 [5] | GI50 [6] | GI50 [7] | GI50 [8] | GI50 [9] | GI50 [10] [µM] | GI50 [11] | GI50 [12] | GI50 [13] | GI50 [14] | GI50 [15] | GI50 [16] | GI50 [17] | GI50 [18] | GI50 [19] |
| --- | --- | --- | --- | --- | --- | --- | --- | --- | --- | --- | --- | --- | --- | --- | --- | --- | --- | --- | --- |
| Cc1ccc(OP(=O)(Oc2ccc(C)cc2)N2C=Cc3ccccc3C2C#N)cc1 (stereo not drawn) | > 100 µM (inactive) | > 100 µM (inactive) | > 100 µM (inactive) | > 100 µM (inactive) | > 100 µM (inactive) | > 100 µM (inactive) | > 100 µM (inactive) | 70.5 µM (inactive) | > 100 µM (inactive) | > 100 | 48.8 µM (inactive) | > 100 µM (inactive) | > 100 µM (inactive) | > 100 µM (inactive) | > 100 µM (inactive) | > 100 µM (inactive) | > 100 µM (inactive) | > 100 µM (inactive) | > 100 µM (inactive) |
| CC1OC(O[C@H]2CC[C@]3(C)[C@H]4CC=C5[C@@H]6[C@@H](C)[C@H](C)CC[C@]6(C(=O)OC6OC(CO)C(O)C(O)C6O)CC[C@@]5(C(=O)O)[C@]4(C)CC[C@H]3C2(C)C)C(O)C(O)C1O (stereo partly drawn) | > 100 µM (inactive) | > 100 µM (inactive) | > 100 µM (inactive) | > 100 µM (inactive) | > 100 µM (inactive) | > 100 µM (inactive) | > 100 µM (inactive) | > 100 µM (inactive) | > 100 µM (inactive) | > 100 | > 100 µM (inactive) | > 100 µM (inactive) | > 100 µM (inactive) | > 100 µM (inactive) | > 100 µM (inactive) | > 100 µM (inactive) | > 100 µM (inactive) | > 100 µM (inactive) | > 100 µM (inactive) |
| Cc1cccc2sc(NC(=O)NS(=O)(=O)n3cnc4ccccc43)nc12 | 15.1 µM (inactive) | 21 µM (inactive) | 23 µM (inactive) | 43.8 µM (inactive) | 29.9 µM (inactive) | 35.6 µM (inactive) | 15.9 µM (inactive) | 13.8 µM (inactive) | 30.4 µM (inactive) | 25.9 | 21.6 µM (inactive) | 15.3 µM (inactive) | 21.7 µM (inactive) | 22.2 µM (inactive) | 33.8 µM (inactive) | 18.8 µM (inactive) | 18.4 µM (inactive) | 20.9 µM (inactive) | 31.3 µM (inactive) |
| O=c1c(=O)c2c(Br)sc(Br)c2c1=O | 20 µM (inactive) | 23.6 µM (inactive) | 19.5 µM (inactive) | 16.4 µM (inactive) | > 100 µM (inactive) | 22.1 µM (inactive) | 18.7 µM (inactive) | 31 µM (inactive) | > 100 µM (inactive) | 19.4 | 16.1 µM (inactive) | 17.9 µM (inactive) | 16.9 µM (inactive) | 33 µM (inactive) | 22.6 µM (inactive) | 28.9 µM (inactive) | 20.3 µM (inactive) | > 100 µM (inactive) | 19.8 µM (inactive) |
| CC(C)(C)OC(=O)N(CCCCNC(=O)C(F)(F)F)CCCNC(=O)C(F)(F)F | > 100 µM (inactive) | > 100 µM (inactive) | > 100 µM (inactive) | > 100 µM (inactive) | > 100 µM (inactive) | > 100 µM (inactive) | > 100 µM (inactive) | > 100 µM (inactive) | > 100 µM (inactive) | > 100 | > 100 µM (inactive) | > 100 µM (inactive) | > 100 µM (inactive) | > 100 µM (inactive) | > 100 µM (inactive) | > 100 µM (inactive) | > 100 µM (inactive) | > 100 µM (inactive) | > 100 µM (inactive) |
| CC(Cc1ccc(O)c(O)c1)C(C)Cc1ccc(O)c(O)c1 (stereo not drawn) [NORDIHYDROGUAIARETIC ACID] | 18.4 µM (inactive) | 18.7 µM (inactive) | 18.2 µM (inactive) | 14.4 µM (inactive) | 16.7 µM (inactive) | 23.6 µM (inactive) | 13.6 µM (inactive) | 16.9 µM (inactive) | 17.1 µM (inactive) | > 38.9 | 2.03 µM (inactive) | 3.14 µM (inactive) | 16.8 µM (inactive) | 9.55 µM (inactive) | 17.2 µM (inactive) | 19.8 µM (inactive) | 20.1 µM (inactive) | 22.1 µM (inactive) | 16.5 µM (inactive) |
| NS(=O)(=O)c1ccc(/N=N/c2ccc(O)c(O)c2)cc1 | 34.8 µM (inactive) | 12.6 µM (inactive) | 24.3 µM (inactive) | 5.98 µM (inactive) | 19.9 µM (inactive) | 24.6 µM (inactive) | 17.7 µM (inactive) | 20 µM (inactive) | 11.7 µM (inactive) | 3.18 | 1.6 µM (inactive) | 23.7 µM (inactive) | 6.19 µM (inactive) | 11.2 µM (inactive) | 12.4 µM (inactive) | 25 µM (inactive) | 17 µM (inactive) | 37 µM (inactive) | 24.5 µM (inactive) |
